Measurements published in patent US4061607A, “Somatostatin analogs and intermediates thereto” (Eli Lilly and Company, priority 1976, dated 1977).
Positions of bridges follow the written chain, without caps; N, C: chain ends. Non-standard residues stand in square brackets, D forms with d. Residues, ends and D or L forms follow the SMILES beside them. Cha = N[C@@H](CC1CCCCC1)C(=O)O

Columns and labels:
gastric HCl secretion = test: in vivo inhibition of gastric acid secretion in dogs with chronic fistula and Heidenhain pouch; details: for effect equivalent to that dose of somatostatin: extrapolated against the dose-response curve of somatostatin, test compound 3 μg/kg-hr.; for activity relative to that of somatostatin: gastric acid secretion in dogs, relative potency expressed as percent activity
Experimental: D-Phe^11 -somatostatin and L-Cha^11 -somatostatin also were tested in dogs for their in vivo inhibition of gastric acid secretion. In six dogs with chronic fistula and Heidenhain pouch, gastric HCl secretion was induced by infusion of the C-terminal tetrapeptide of gastrin at 0.5 μg/kg-hr. One dog served as control, receiving only the tetrapeptide. Another dog received the tetrapeptide and somatostatin while the test compound was administered to the remaining dogs in place of somatostatin. After one hour of steady state secretion of HCl, somatostatin or the test compound was infused at 3 μg/kg-hr. for one hour. Collection of gastric acid samples was continued for an additional 1.5 hours at 15 minute intervals. The samples were titrated to pH 7 with an automatic titrator. The maximal inhibitory effect of the test compounds was extrapolated against the dose-response curve of somatostatin, and the relative potency of the analogs to that of somatostatin is expressed as percent activity. […] This effect is equivalent to that of 0.086 μg/kg-hr. of somatostatin. Its activity relative to that of somatostatin thus is 2.87%. […] This effect is equivalent to that of 0.0825 μg/kg-hr. of somatostatin. Its activity relative to that of somatostatin therefore is 2.7%.

insulin secretion = test: in vivo inhibition of insulin secretion upon stimulation with L-alanine; parameters: species or system mongrel dogs; details: for effect on the increase in serum insulin concentration produced by infusion of L-alanine / effect on basal serum insulin concentration: dogs, intravenous infusion; for effect on the increase in serum insulin concentration produced by infusion of L-alanine: D-Phe11 0.211, L-Cha11 0.235, L-Leu11 0.195 μg/kg/min., L-alanine 1 mmol/kg; for effect on basal serum insulin concentration: L-Cha11 0.235, L-Leu11 0.195 μg/kg/min., somatostatin about 0.20-0.30 μg/kg./minute
Experimental: (§1) The tetradecapeptides were tested for their in vivo activity in inhibiting glucagon and insulin secretion upon stimulation with L-alanine. Normal mongrel dogs of either sex were fasted overnight. Control blood samples were obtained, and then an intravenous infusion of saline, somatostatin, or test compound was started. After 30 minutes, L-alanine additionally was administered intravenously for a period of 15 minutes. The infusion of saline, somatostatin, or test compound was continued for 15 minutes after completion of the alanine infusion. The total dose of somatostatin or test compound which was infused is 200-500 μg/dog (about 0.20-0.30 μg/kg./minute), and the total dose of L-alanine infused was 1 mmol/kg. The infusion of L-alanine produced an abrupt increase in the serum concentration of glucagon and insulin. This returned to control concentration when the alanine infusion was discontinued.

glucagon secretion [1] = test: in vivo inhibition of glucagon secretion upon stimulation with insulin; parameters: species or system mongrel dogs; details: dogs, intravenous infusion for two hours; D-Phe11 0.128, L-Cha11 0.130, L-Leu11 0.129 μg/kg/min.; insulin 0.3 units/kg.
Experimental: The tetradecapeptides also were evaluated for in vivo activity in inhibiting glucagon secretion upon stimulation with insulin. Normal mongrel dogs of either sex were fasted overnight. After control blood samples had been obtained, an intravenous infusion of saline, somatostatin, or the test compound was commenced. After 15 minutes, insulin, 0.3 units/kg., was injected intravenously. The infusion of saline, somatostatin, or the test compound was continued for two hours, and blood samples were obtained at various intervals throughout the test. The total dose of the somatostatin or test compound ranged from 120-260 μg./dog (0.07-0.13 μg/kg/min.). Administration of insulin produced a reduction in the blood glucose concentration and an increase in serum glucagon concentration.

glucagon secretion [2] = test: in vivo inhibition of glucagon secretion upon stimulation with L-alanine; parameters: species or system mongrel dogs; details: dogs, intravenous infusion; for effect on the increase in serum glucagon concentration produced by infusion of L-alanine: D-Phe11 0.211, L-Cha11 0.235, L-Leu11 0.195 μg/kg/min., L-alanine 1 mmol/kg; for effect on basal serum glucagon concentration: L-Cha11 0.235, L-Leu11 0.195 μg/kg/min.
Experimental: as §1

[3] = tested on: release of growth hormone; test: release of growth hormone in pentobarbital-stimulated rats; type: in vivo, Spraque-Dawley rats; details: 50 μg./rat subcutaneously, sodium pentobarbital stimulated, somatostatin comparator run in each set
Experimental: D-Phe^11 -somatostatin, L-Cha^11 -somatostatin, and L-Leu^11 -somatostatin also were tested for their activity with respect to the release of growth hormone. The procedure which was employed is carried out using mature male Spraque-Dawley rats (Laboratory Supply Company, Indianapolis, Indiana). The test is a modification of the method of P. Brazeau, W. Vale, and R. Guilleman, Endocrinology, 94 184 (1974). In each assay, a set comprising three groups of eight rats each was employed. First, sodium pentobarbital was administered to all of the rats of the particular set to stimulate growth hormone secretion. In each set, one group served as control group and received only saline. A second group received somatostatin at 50 μg./rat, subcutaneously. The third group received test compound at 50 μg./rat, subcutaneously. The degree of inhibition of serum growth hormone concentration then was determined with respect to the control group, and the relative activities of test compound and somatostatin itself were compared.

Structure (SMILES) | effect equivalent to that dose of somatostatin (gastric HCl secretion) [μg/kg-hr.] | activity relative to that of somatostatin (gastric HCl secretion) [%] | effect on the increase in serum insulin concentration produced by infusion of L-alanine (insulin secretion) | effect on the increase in serum glucagon concentration produced by insulin administration (glucagon secretion [1]) | effect on the increase in serum glucagon concentration produced by infusion of L-alanine (glucagon secretion [2]) | inhibition of the increase in serum growth hormone concentration over control [3] [%] | effect on basal serum insulin concentration (insulin secretion) | effect on basal serum glucagon concentration (glucagon secretion [2]) | inhibitory effect upon the pancreatic secretion of insulin (insulin secretion; general statement)
C[C@H](N)C(=O)NCC(=O)N[C@H]1CSSC[C@@H](C(=O)O)NC(=O)[C@H](CO)NC(=O)[C@H]([C@@H](C)O)NC(=O)[C@@H](Cc2ccccc2)NC(=O)[C@H]([C@@H](C)O)NC(=O)[C@H](CCCCN)NC(=O)[C@H](Cc2c[nH]c3ccccc23)NC(=O)[C@H](Cc2ccccc2)NC(=O)[C@H](Cc2ccccc2)NC(=O)[C@H](CC(N)=O)NC(=O)[C@H](CCCCN)NC1=O [D-Phe^11 -somatostatin] | 0.086 | 2.87 | did not affect the increase in serum glucagon concentration and serum insulin concentration | none of these compounds inhibited the increase in serum glucagon concentration | did not affect the increase in serum glucagon concentration | 70 | – | – | –
C[C@H](N)C(=O)NCC(=O)N[C@H]1CSSC[C@@H](C(=O)O)NC(=O)[C@H](CO)NC(=O)[C@H]([C@@H](C)O)NC(=O)[C@H](CC2CCCCC2)NC(=O)[C@H]([C@@H](C)O)NC(=O)[C@H](CCCCN)NC(=O)[C@H](Cc2c[nH]c3ccccc23)NC(=O)[C@H](Cc2ccccc2)NC(=O)[C@H](Cc2ccccc2)NC(=O)[C@H](CC(N)=O)NC(=O)[C@H](CCCCN)NC1=O [L-Cha^11 -somatostatin] (H-AGCKNFFWKT[Cha]TSC-OH; disulfide 3-14) | 0.0825 | 2.7 | did not inhibit the increase in serum concentration of either hormone | none of these compounds inhibited the increase in serum glucagon concentration | did not inhibit the increase in serum concentration of either hormone | 33 | caused a decrease in the basal serum concentration of both insulin and glucagon | caused a decrease in the basal serum concentration of both insulin and glucagon | –
CC(C)C[C@@H]1NC(=O)[C@H]([C@@H](C)O)NC(=O)[C@H](CCCCN)NC(=O)[C@H](Cc2c[nH]c3ccccc23)NC(=O)[C@H](Cc2ccccc2)NC(=O)[C@H](Cc2ccccc2)NC(=O)[C@H](CC(N)=O)NC(=O)[C@H](CCCCN)NC(=O)[C@@H](NC(=O)CNC(=O)[C@H](C)N)CSSC[C@@H](C(=O)O)NC(=O)[C@H](CO)NC(=O)[C@H]([C@@H](C)O)NC1=O [L-Leu^11 -somatostatin] (H-AGCKNFFWKTLTSC-OH; disulfide 3-14) | – | – | caused only a partial inhibition of the increase in insulin secretion | none of these compounds inhibited the increase in serum glucagon concentration | had no effect on the increase in glucagon concentration produced by L-alanine | 22 | had no affect on the basal serum concentration of either insulin or glucagon | had no affect on the basal serum concentration of either insulin or glucagon | exhibits an inhibitory effect upon the pancreatic secretion of insulin
